{"source": "patent US20240158446A1", "about": "“CYCLIC COMPOUND HAVING SELECTIVE INHIBITORY ACTION ON KRAS OVER HRAS AND NRAS” (CHUGAI SEIYAKU KABUSHIKI KAISHA, priority 2021, published 2024)", "key": {"[1]": {"target": "GDP-bound NRAS wild-type protein (Homo sapiens, UniProt P01111)", "sequence (P01111 whole entry)": "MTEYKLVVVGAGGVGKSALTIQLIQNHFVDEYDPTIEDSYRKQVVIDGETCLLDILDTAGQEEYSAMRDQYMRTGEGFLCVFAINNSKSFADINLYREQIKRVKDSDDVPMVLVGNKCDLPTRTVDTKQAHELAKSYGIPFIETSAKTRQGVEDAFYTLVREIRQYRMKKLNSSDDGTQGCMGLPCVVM", "experiment": "Binding to NRAS by surface plasmon resonance (SPR), Single Cycle Kinetics", "details": "SPR, GDP-bound NRAS wild-type protein vs GDP-bound KRAS wild-type protein"}, "[2]": {"target": "GDP-bound KRAS wild-type protein (Homo sapiens, UniProt P01116)", "sequence (P01116 whole entry)": "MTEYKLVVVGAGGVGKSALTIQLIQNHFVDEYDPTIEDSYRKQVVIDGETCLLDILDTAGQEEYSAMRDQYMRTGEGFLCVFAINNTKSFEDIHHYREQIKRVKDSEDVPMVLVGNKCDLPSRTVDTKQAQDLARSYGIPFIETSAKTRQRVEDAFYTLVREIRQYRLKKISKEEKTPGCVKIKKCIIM", "experiment": "Binding to KRAS by surface plasmon resonance (SPR), Single Cycle Kinetics", "details": "SPR Single Cycle Kinetics, GDP-bound KRAS wild-type protein, 1:1 binding model; read-out: KRAS KD"}, "[3]": {"target": "GDP-bound HRAS wild-type protein (Homo sapiens, UniProt P01112)", "sequence (P01112 whole entry)": "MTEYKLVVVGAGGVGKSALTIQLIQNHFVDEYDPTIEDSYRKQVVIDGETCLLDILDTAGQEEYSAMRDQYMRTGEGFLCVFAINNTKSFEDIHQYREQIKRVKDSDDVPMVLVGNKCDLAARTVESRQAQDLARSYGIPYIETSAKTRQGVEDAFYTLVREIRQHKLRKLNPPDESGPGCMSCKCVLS", "experiment": "Binding to HRAS by surface plasmon resonance (SPR), Single Cycle Kinetics", "details": "SPR, GDP-bound HRAS wild-type protein vs GDP-bound KRAS wild-type protein"}}}
{"smiles": "CCO[C@@H]1C[C@H]2C(=O)NC3(CCC3)C(=O)N(C)[C@@H](C3CCCC3)C(=O)N(CC)[C@H](C(=O)N(C)C)CC(=O)N(C)[C@@H](CC)C(=O)N[C@@H]([C@@H](C)CC)C(=O)N(C)CC(=O)N(C)[C@H]3CCCCN(C3=O)[C@@H](Cc3ccc(C(F)(F)F)cc3)C(=O)N(C)CC(=O)N[C@@H](CCc3cc(F)c(C(F)(F)F)c(F)c3)C(=O)N2C1", "note": "[PP0643]", "values": [{"measurement": "NRAS/KRAS (ratio of KD value with respect to NRAS to KD value with respect to KRAS)", "setting": "[1]", "result": "C (A compound having a KD ratio of 0.1 or more and less than 3 is denoted as C)"}, {"measurement": "Kd", "setting": "[2]", "result": 0.074, "unit": "nM"}, {"measurement": "HRAS/KRAS (ratio of KD value with respect to HRAS to KD value with respect to KRAS)", "setting": "[3]", "result": "B (a compound having 3 or more and less than 10 is denoted as B)"}]}
{"smiles": "CCO[C@@H]1C[C@H]2C(=O)NC3(CCC3)C(=O)N(C)[C@@H](C3CCCC3)C(=O)N(CCC3CCC3)[C@H](C(=O)N(C)C)CC(=O)N(C)[C@@H](CC)C(=O)N[C@@H]([C@@H](C)CC)C(=O)N(C)CC(=O)N(C)[C@H]3CCCCN(C3=O)[C@@H](Cc3ccc(C(F)(F)F)cc3)C(=O)N(C)CC(=O)N[C@@H](CCc3cc(F)c(C(F)(F)F)c(F)c3)C(=O)N2C1", "note": "[PP0645]", "values": [{"measurement": "NRAS/KRAS (ratio of KD value with respect to NRAS to KD value with respect to KRAS)", "setting": "[1]", "result": "B (a compound having 3 or more and less than 10 is denoted as B)"}, {"measurement": "Kd", "setting": "[2]", "result": 0.028, "unit": "nM"}, {"measurement": "HRAS/KRAS (ratio of KD value with respect to HRAS to KD value with respect to KRAS)", "setting": "[3]", "result": "B (a compound having 3 or more and less than 10 is denoted as B)"}]}
{"smiles": "CCO[C@@H]1C[C@H]2C(=O)NC3(CCC3)C(=O)N(C)[C@@H](C3CCCC3)C(=O)N(CCc3ccccc3)[C@H](C(=O)N(C)C)CC(=O)N(C)[C@@H](CC)C(=O)N[C@@H]([C@@H](C)CC)C(=O)N(C)CC(=O)N(C)[C@H]3CCCCN(C3=O)[C@@H](Cc3ccc(C(F)(F)F)cc3)C(=O)N(C)CC(=O)N[C@@H](CCc3cc(F)c(C(F)(F)F)c(F)c3)C(=O)N2C1", "note": "[PP0647]", "values": [{"measurement": "NRAS/KRAS (ratio of KD value with respect to NRAS to KD value with respect to KRAS)", "setting": "[1]", "result": "C (A compound having a KD ratio of 0.1 or more and less than 3 is denoted as C)"}, {"measurement": "Kd", "setting": "[2]", "result": 0.68, "unit": "nM"}, {"measurement": "HRAS/KRAS (ratio of KD value with respect to HRAS to KD value with respect to KRAS)", "setting": "[3]", "result": "B (a compound having 3 or more and less than 10 is denoted as B)"}]}
{"smiles": "CCO[C@@H]1C[C@H]2C(=O)NC3(CCC3)C(=O)N(C)[C@@H](C3CCCC3)C(=O)N(CC)[C@H](C(=O)N3CCOCC3)CC(=O)N(C)[C@@H](CC(C)C)C(=O)N[C@@H]([C@@H](C)CC)C(=O)N(C)CC(=O)N(C)[C@H]3CCCCN(C3=O)[C@@H](Cc3ccc(C(F)(F)F)cc3)C(=O)N(C)CC(=O)N[C@@H](CCc3cc(F)c(C(F)(F)F)c(F)c3)C(=O)N2C1", "note": "[PP0648]", "values": [{"measurement": "NRAS/KRAS (ratio of KD value with respect to NRAS to KD value with respect to KRAS)", "setting": "[1]", "result": "B (a compound having 3 or more and less than 10 is denoted as B)"}, {"measurement": "Kd", "setting": "[2]", "result": 0.21, "unit": "nM"}, {"measurement": "HRAS/KRAS (ratio of KD value with respect to HRAS to KD value with respect to KRAS)", "setting": "[3]", "result": "B (a compound having 3 or more and less than 10 is denoted as B)"}]}
{"smiles": "CCCN1C(=O)[C@H](C2CCCC2)N(C)C(=O)C2(CCC2)NC(=O)[C@@H]2C[C@@H](OCC)CN2C(=O)[C@H](CCc2cc(F)c(C(F)(F)F)c(F)c2)NC(=O)CN(C)C(=O)[C@H](Cc2ccc(C(F)(F)F)cc2)N2CCCC[C@@H](C2=O)N(C)C(=O)CN(C)C(=O)[C@H]([C@@H](C)CC)NC(=O)[C@H](CC(C)C)N(C)C(=O)C[C@H]1C(=O)N1CCOCC1", "note": "[PP0649]", "values": [{"measurement": "NRAS/KRAS (ratio of KD value with respect to NRAS to KD value with respect to KRAS)", "setting": "[1]", "result": "C (A compound having a KD ratio of 0.1 or more and less than 3 is denoted as C)"}, {"measurement": "Kd", "setting": "[2]", "result": 0.75, "unit": "nM"}, {"measurement": "HRAS/KRAS (ratio of KD value with respect to HRAS to KD value with respect to KRAS)", "setting": "[3]", "result": "B (a compound having 3 or more and less than 10 is denoted as B)"}]}
{"smiles": "CCO[C@@H]1C[C@H]2C(=O)NC3(CCC3)C(=O)N(C)[C@@H](C3CCCC3)C(=O)N(CCC3CCC3)[C@H](C(=O)N3CCOCC3)CC(=O)N(C)[C@@H](CC(C)C)C(=O)N[C@@H]([C@@H](C)CC)C(=O)N(C)CC(=O)N(C)[C@H]3CCCCN(C3=O)[C@@H](Cc3ccc(C(F)(F)F)cc3)C(=O)N(C)CC(=O)N[C@@H](CCc3cc(F)c(C(F)(F)F)c(F)c3)C(=O)N2C1", "note": "[PP0650]", "values": [{"measurement": "NRAS/KRAS (ratio of KD value with respect to NRAS to KD value with respect to KRAS)", "setting": "[1]", "result": "C (A compound having a KD ratio of 0.1 or more and less than 3 is denoted as C)"}, {"measurement": "Kd", "setting": "[2]", "result": 0.62, "unit": "nM"}, {"measurement": "HRAS/KRAS (ratio of KD value with respect to HRAS to KD value with respect to KRAS)", "setting": "[3]", "result": "B (a compound having 3 or more and less than 10 is denoted as B)"}]}
